From publication PMC8591608, “DNDI-6148: A Novel Benzoxaborole Preclinical Candidate for the Treatment of Visceral Leishmaniasis” (Journal of Medicinal Chemistry, 2021) come the findings set out here.

Data set [1] in a line: Hepatocyte stability, dog. The data set is classed as in vitro ADME. Particulars: Beagle, cryopreserved dog hepatocytes. How it is done:
(§1) Tests were performed by WuXi AppTec, China. Following a viability check of cryopreserved hepatocytes from Sprague-Dawley rat, Beagle dog, or human, test compounds (at 1 μM) or positive controls 7-ethoxycoumarin and 7-hydroxycoumarin (at 3 μM) were incubated at 37 °C, 5% CO2 with hepatocytes in Williams’ Medium E. Following incubation of 15, 30, 60, 90, 120, 180, and 240 min, reactions were stopped by the addition of acetonitrile, the samples were centrifuged, and LC-MS/MS analysis was conducted using tolbutamide as an internal standard.

Data set [2] relates to MDR1. The data set is described as follows: in vitro. The data set is classed as in vitro ADME. The settings on record: dog. The protocol:
Bidirectional permeability tests with MDCK-MDR1 cells were performed by WuXi AppTec, Co., China. The test compound, at a concentration of 2 μM in 0.4% DMSO/HBSS buffer with 10 mM HEPES pH 7.4, was applied to the apical or basolateral side of the cell monolayer. Permeation of the compound from A to B direction or B to A direction was determined in triplicate over a 150 min incubation at 37 °C and 5% CO2 (95% humidity). Test and reference compounds were quantified by LC-MS/MS analysis based on the peak area ratio of analyte/internal standard.

Data set [3] concerns CPSF3 (Asn219His)-overexpressing L. donovani promastigotes. In words: Drug sensitivity, CPSF3 (Asn219His)-overexpressing L. donovani promastigotes. The data set is classed as cell-based. The settings on record: Leishmania donovani. The protocol: The clonal L. donovani cell line LdBOB (derived from MHOM/SD/62/1S-CL2D) was grown as promastigotes at 28 °C, as described previously. Bloodstream form T. brucei MiTat 1.2 clone 221a and its derived subline, 2T1, were cultured at 37 °C in the presence of 5% CO2 in HMI9-T medium, as described previously. T. brucei cell lines overexpressing CPSF3 and overexpressing a mutated version of CPSF3 (Asn232His) were generated as part of a previous study and cultured as described.[19]
L. donovaniCPSF3 gene (LdBPK_343210.1) was custom synthesized by GeneArt and ligated into the pIR1SAT vector via BglII restriction sites. Using the Q5 mutagenesis kit (NEB) and the pIR1SAT-LdCPSF3^WT construct as a template, mutations encoding A655C and Asn219His change to CPSF3^WT were introduced. Mutations were introduced using the specific primers 5′-GAGTACACGGCATCCGC-3′ and 5′-[…]-3′ and as per manufacturers’ instructions. Wild-type and mutated pIR1SAT constructs were digested with SwaI and transfected into L. donovani promastigotes, as previously described. Resistant clones were selected with nourseothricin (100 μg/mL), and two clones per transfection were selected for further study.
(§2) Drug sensitivity assays with wild-type and transgenic T. brucei and L. donovani cell lines were carried out as previously described.[31],[32]

Data set [4] concerns the target CYP3A4 (Homo sapiens, UniProt P08684). In words: CYP inhibition, CYP3A4. The data set is classed as in vitro ADME. Particulars: human liver microsomes. How it is done:
(§3) The study was conducted by WuXi AppTec, Co., China, using the time-dependent (TDI) method. […] Following incubation with substrates (phenacetin for 1A2, diclofenac for 2C9, S-(+) mephenytoin for 2C19, dextromethorphan for 2D6, and midazolam or testosterone for 3A4), reactions were stopped by adding ice-cold acetonitrile, the samples were analyzed for the formation of metabolites by LC-MS/MS, and the percentage of inhibition was determined.
(Microsomes from liver hold many membrane-bound enzymes, among them those of drug oxidation.)

Data set [5] can be described thus: Hepatocyte stability, rat. The data set is classed as in vitro ADME. Particulars: Sprague-Dawley, cryopreserved rat hepatocytes. The protocol:
as §1

Data set [6] deals with T1, hERG potassium channels (Homo sapiens, UniProt Q12809).
T1 construct: expressed in transfected cells; host or cells: Chinese hamster ovary (CHO) cells
T1 sequence (Q12809 whole entry): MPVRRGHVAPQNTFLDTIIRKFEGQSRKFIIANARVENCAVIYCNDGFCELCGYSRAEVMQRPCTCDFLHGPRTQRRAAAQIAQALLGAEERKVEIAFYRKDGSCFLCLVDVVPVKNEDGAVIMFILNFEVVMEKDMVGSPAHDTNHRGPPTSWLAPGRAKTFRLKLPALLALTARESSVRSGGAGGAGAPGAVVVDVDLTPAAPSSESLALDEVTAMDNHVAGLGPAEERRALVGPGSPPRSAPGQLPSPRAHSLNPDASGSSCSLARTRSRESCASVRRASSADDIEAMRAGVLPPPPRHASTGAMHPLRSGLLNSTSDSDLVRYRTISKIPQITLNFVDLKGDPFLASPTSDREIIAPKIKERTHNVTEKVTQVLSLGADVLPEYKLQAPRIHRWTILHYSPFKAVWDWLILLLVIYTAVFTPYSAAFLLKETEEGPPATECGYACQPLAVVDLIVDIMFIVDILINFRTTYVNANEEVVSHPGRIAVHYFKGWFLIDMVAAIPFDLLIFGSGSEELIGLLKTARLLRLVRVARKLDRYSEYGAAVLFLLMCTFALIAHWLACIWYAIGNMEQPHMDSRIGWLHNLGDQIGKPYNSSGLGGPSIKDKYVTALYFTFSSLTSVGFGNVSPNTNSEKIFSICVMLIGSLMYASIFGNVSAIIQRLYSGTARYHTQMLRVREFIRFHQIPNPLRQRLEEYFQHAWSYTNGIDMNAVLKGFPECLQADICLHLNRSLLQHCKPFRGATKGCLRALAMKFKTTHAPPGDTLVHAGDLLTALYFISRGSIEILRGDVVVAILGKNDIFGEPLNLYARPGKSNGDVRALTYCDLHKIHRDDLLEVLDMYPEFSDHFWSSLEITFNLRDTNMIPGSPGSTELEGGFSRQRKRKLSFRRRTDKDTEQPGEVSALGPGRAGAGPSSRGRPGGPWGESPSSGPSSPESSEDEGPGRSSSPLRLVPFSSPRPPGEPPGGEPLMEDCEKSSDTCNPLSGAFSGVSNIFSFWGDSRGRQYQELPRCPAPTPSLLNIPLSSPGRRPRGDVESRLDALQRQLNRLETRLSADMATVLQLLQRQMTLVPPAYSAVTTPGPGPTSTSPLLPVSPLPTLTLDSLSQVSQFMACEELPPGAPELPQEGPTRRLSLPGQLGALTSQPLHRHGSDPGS
In words: hERG inhibition, automated patch-clamp. The data set is classed as cell-based. Particulars: at 30 μM. The protocol:
An automated patch-clamp method (QPatch HTX) was used by WuXi AppTec, China. Chinese hamster ovary cells expressing hERG potassium channels were incubated at room temperature with test compounds (0.12, 0.37, 1.11, 3.33, 10, and 30 μM, in triplicate) or amitriptyline as a positive control.

Data set [7] is described as follows: Liver microsome stability, dog. The data set is classed as in vitro ADME. The settings on record: Beagle, dog liver microsomes, pH 7.4. The protocol:
Tests were performed by WuXi AppTec, China. Test compounds (at 1 μM) or positive controls (testosterone, propafenone, and diclofenac) were incubated at 37 °C with liver microsomes from Balb/c mouse, golden (Syrian) hamster, Sprague-Dawley rat, Beagle dog, or human in the presence of a NADPH regenerating system and phosphate buffer (100 mM, pH 7.4) at 0.4 or 0.8 mg/mL microsomal protein. The samples were removed at time intervals from 0 to 60, 90, or 120 min and immediately mixed with cold methanol supplemented or not with acid (3% formic acid) and centrifuged prior to analysis by LC-MS/MS using tolbutamide or propranolol as internal standards.

For data set [8], the system named is L. donovani clones, CPSF3 Asn219His/Glu229Val. In words: Drug sensitivity, L. donovani CRISPR-Cas9 edited CPSF3 Asn219His/Glu229Val. The data set is classed as cell-based. The protocol:
A cell line constitutively expressing Cas9 and T7 RNA polymerase was generated by transfecting 4 × 10^7 promastigotes with the pTB007 vector (10 μg), as previously described.[29] Expression of Cas9 in selected clones was confirmed by western blotting (Figure S1). In addition, the CRISPR-Cas9 system in these parasites was confirmed as functional following the successful tagging of the flagellar protein PF16 with mNeonGreen, as previously described.[29]
To introduce specific mutations into CPSF3, 3 × 10^6 promastigotes expressing Cas9 and T7 RNA were resuspended in a 110 μL of Human T-Cell Nucleofector reagent and transfected with 18 μL of sgRNA and 4 μg of template using the Amaxa Nucleofector electroporator (program V-033). sgRNA was produced according to the previously established protocol from the Gluenz lab,[30] in which the scaffold primer G00 and a gene-specific forward primer (FwsgRNA) were used (Table S1). Twenty-four hours following transfection, DNDI-6148 was added to cultures at 6 μM. Drug-selected populations were cloned by limiting dilution, EC50s were determined, and genomic DNA was extracted. The CPSF3 gene from CRISPR-edited parasites was amplified by PCR, and the resulting products were sequenced.
as §2

Data set [9] concerns panel of 88 targets (Cerep panel). The data set is described as follows: Off-target panel (Eurofins Cerep panel). The settings on record: at a concentration of 10 μM.
Data set [10] is described as follows: Hepatocyte stability, human. The data set is classed as in vitro ADME. Particulars: cryopreserved hepatocytes. The protocol: as §1
The target of data set [11] is CYP2D6 (Homo sapiens, UniProt P10635). In words: CYP inhibition, CYP2D6. The data set is classed as in vitro ADME. The settings on record: human liver microsomes. How it is done:
as §3

Where only a bound is given, the exact number is not on record here.

Chain of CYP3A4 (P08684 2-503 limits assumed): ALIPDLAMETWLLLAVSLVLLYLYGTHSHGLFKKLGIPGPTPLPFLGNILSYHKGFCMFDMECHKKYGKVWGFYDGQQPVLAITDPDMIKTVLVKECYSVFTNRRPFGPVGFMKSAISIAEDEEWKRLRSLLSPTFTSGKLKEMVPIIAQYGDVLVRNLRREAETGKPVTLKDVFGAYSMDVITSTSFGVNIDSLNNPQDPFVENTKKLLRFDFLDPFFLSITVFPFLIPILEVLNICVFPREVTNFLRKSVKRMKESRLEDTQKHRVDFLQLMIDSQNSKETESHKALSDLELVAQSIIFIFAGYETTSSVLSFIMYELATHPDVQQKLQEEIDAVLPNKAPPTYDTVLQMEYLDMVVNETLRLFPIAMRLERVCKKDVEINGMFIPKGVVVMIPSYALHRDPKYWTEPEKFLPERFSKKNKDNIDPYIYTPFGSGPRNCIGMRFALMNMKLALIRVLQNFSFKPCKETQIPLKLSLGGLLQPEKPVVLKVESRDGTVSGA
Chain of CYP2D6 (P10635 whole entry): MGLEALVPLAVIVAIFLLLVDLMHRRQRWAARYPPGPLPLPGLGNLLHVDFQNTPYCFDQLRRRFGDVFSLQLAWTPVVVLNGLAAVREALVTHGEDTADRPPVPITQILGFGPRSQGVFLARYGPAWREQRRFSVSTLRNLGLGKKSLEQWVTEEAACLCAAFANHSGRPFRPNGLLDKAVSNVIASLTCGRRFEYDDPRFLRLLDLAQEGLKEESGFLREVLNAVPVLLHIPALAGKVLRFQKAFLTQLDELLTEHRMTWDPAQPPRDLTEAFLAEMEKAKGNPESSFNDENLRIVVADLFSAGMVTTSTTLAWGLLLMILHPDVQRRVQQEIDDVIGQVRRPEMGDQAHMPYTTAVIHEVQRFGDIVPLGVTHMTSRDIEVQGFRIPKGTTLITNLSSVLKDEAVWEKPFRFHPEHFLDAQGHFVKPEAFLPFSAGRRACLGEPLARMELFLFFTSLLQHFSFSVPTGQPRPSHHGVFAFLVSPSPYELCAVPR

In general, hepatocyte CLint refers to a measure of how fast metabolising enzymes remove a compound, apart from limits set by blood flow. Lower therefore signals slow turnover. What is called Papp A→B is the apparent permeability from the apical to the basolateral side of a cell layer. High values mean ready permeation, low ones poor permeation. A word on the Papp B→A: it is how fast a substance crosses the layer from the basolateral side. For orientation: efflux ratio means the permeability from basolateral to apical divided by that in the opposite direction, in the common usage. By EC50 is commonly meant the concentration that produces a half-maximal response. Low readings indicate greater potency, high ones weaker potency. As a reminder, the IC50 is the point on the concentration scale where inhibition reaches its midpoint. Read a low IC50 as higher potency. As a reminder, the microsomal CLint is the rate of metabolic loss divided by the concentration. A higher microsomal CLint goes with faster metabolism. On to `Cc1c(C(=O)Nc2ccc3c(c2)B(O)OC3)nnn1-c1ccccn1` [Compound 23, N-(1-Hydroxy-1,3-dihydrobenzo[c][1,2]oxaborol-6-yl)-5-methyl-1-(pyridin-2-yl)-1H-1,2,3-triazole-4-carboxamide], for which the hepatocyte CLint at 1 μM in data set [1] came to 2.4 µL/min/1e6 cells; in data set [5], 0.7 µL/min/1e6 cells; in [10] it was 0.5 µL/min/1e6 cells. The compound further had a Papp A→B at 150 min, 2 μM in data set [2] (MDCK-MDR1, pH 7.4) of 17.1 ×10⁻⁶ cm/s. In data set [2] (MDCK-MDR1, pH 7.4), this compound registered a Papp B→A at 150 min, 2 μM of 11.6 ×10⁻⁶ cm/s. In [2] (MDCK-MDR1, pH 7.4), the efflux ratio at 150 min, 2 μM is 0.68. For the same compound, the efflux ratio at 2.5 h, 2 µM in [2] (MDCK-MDR1, pH 7.4) was 0.7. Further, the recovery at 150 min, 2 μM was 71.1% in [2] (MDCK-MDR1, pH 7.4, Mean total recovery A to B) and 87.8% in data set [2] (MDCK-MDR1, pH 7.4, Mean total recovery B to A). Besides, the figures for the EC50 in data set [3] and in [8] (Leishmania donovani) were 1.67 ± 0.051 µM and 2830 ± 139 µM, respectively. In addition, the IC50 in [4] and in [11] was more than 50 µM in each case. This compound returned a hERG inhibition in data set [6] of less than 20%. Besides, in [7], the microsomal CLint at 1 μM is 5.8 µL/min/mg. The “Fold change (relative to WT)” value in data set [8] (CRISPR-Cas9 edited Asn219His/Glu229Val, listed as DNDI-6148) was more than 5 fold. Besides, the “activity in panel of 88 targets” value in data set [9] is not above 50%.
